For this test, the target named is T1, hTRPC5 (Homo sapiens, UniProt Q9UL62).
T1 construct: expressed in transfected cells; host or cells: HEK293 TREx cells with inducible TRPC5 expression
T1 sequence (Q9UL62 1-973): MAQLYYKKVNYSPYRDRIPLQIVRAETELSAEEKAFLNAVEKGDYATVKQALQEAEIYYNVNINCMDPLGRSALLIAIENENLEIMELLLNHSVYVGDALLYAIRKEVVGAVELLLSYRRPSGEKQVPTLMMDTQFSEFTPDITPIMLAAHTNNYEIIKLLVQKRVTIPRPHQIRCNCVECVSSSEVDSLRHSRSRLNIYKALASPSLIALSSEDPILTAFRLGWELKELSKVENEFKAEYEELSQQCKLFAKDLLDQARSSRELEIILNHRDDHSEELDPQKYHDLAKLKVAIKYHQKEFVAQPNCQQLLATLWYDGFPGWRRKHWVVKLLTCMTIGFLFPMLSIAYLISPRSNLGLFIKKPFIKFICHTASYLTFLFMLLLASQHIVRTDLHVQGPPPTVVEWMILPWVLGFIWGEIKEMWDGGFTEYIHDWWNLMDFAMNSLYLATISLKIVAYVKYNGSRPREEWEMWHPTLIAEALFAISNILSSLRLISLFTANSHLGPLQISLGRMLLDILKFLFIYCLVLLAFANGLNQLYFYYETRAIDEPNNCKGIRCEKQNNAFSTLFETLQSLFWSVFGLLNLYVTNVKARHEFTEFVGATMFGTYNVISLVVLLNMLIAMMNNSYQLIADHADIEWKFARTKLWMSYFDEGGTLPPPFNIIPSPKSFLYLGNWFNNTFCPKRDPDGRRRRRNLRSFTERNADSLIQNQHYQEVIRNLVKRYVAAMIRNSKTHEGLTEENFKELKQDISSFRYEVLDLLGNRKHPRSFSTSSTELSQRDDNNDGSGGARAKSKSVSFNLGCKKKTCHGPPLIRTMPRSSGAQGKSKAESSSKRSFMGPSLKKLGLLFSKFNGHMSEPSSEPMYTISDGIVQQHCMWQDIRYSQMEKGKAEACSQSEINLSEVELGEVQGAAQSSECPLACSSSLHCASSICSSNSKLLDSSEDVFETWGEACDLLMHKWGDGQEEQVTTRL
Put plainly: Whole-cell patch clamp, block of LaCl3-activated TRPC5 inward current. The format is cell-based. Conditions: TRPC5-expressing HEK293 TREx cells, 80 μM LaCl3, inward current, IC50 estimated from 5 μM and 500 nM, read-out: hTRPC5 Patch La3+ Inwd (nM) (All Batches). Here is the method:
In certain embodiments, exemplary compounds of Formula I and Formula II include the compounds described in Table 1 and in the Examples. A compound described herein may be tested for its ability to block both inward and outward currents through the TRPC5 channel, e.g., by an assay as described in Example 1. For example, IC50 of a compound of Formula I or Formula II was estimated by testing the compound at 5 μM and 500 nM. […] IC50 for a compound of Formula I or Formula II between 500 nM and 5 μM was similarly estimated. As shown, “A” refers to an IC50<100 nM. “B” refers to an IC50 between 100 nM and 500 nM. “C” refers to an IC50 between 500 nM and 1000 nM. “D” refers to an IC50 between 1 μM and 2 μM. “E” refers to an IC50 between 2 μM and 10 μM. “F” refers to […]. “ND” refers to compounds wherein the IC50 was not determined.
Patch clamp experiments permit the detection of currents through the TRPC5 channel in the cell line described above. In normal whole-cell patch clamp recordings, a glass electrode is brought into contact with a single cell and a high-resistance (gigaohm) seal is established with the cell membrane. The membrane is then ruptured to achieve the whole-cell configuration, permitting control of the voltage of the cell membrane and measurement of currents flowing across the membrane using the amplifier attached to the electrode and resulting in the replacement of cytoplasm with the pipette solution. A perfusion system permits control of the extracellular solution, including the addition of blockers and activators of the current. The current can be activated by including 1.4 μM free Ca^2+ in the pipette (intracellular) solution, and 80 μM LaCl3 in the extracellular solution.
TRPC5 cells were induced 20-48 hours, removed from growth plates, and replated at low density (to attain good single-cell physical separation) on glass coverslips for measurement. In some cases, cells were grown in low density overnight on glass coverslips. Patch clamp recordings were made in the whole-cell mode with a holding potential of −40 mV. Every 5 seconds, a voltage ramp was applied from −120 to +100 mV, 400 ms in duration. Currents elicited were quantified at −80 mV and +80 mV. The internal solution consisted of 140 mM cesium aspartate, 10 mM HEDTA, 2 mM CaCl2, 2.27 mM MgCl2 and 10 mM HEPES, pH 7.2, with 1,400 nM calculated free Ca^2+. The external solution consisted of 150 mM NaCl, 4.5 mM KCl, 1 mM MgCl2, 2 mM CaCl2, 10 mM HEPES, 10 mM glucose, 1 mM EGTA, pH 7.4. Upon addition of LaCl3, TRPC5 current was induced only in TRPC5-expressing cells and not in parental HEK293 TREx cells. Removal of the LaCl3 stimulus causes most of the current to go away. Potential blockers were tested for ability to block both inward and outward currents in the continued presence of LaCl3.
IC50 of a compound of Formula I or Formula II was estimated by testing the compound at 5 μM and 500 nM. […] IC50 for a compound of Formula I or Formula II between 500 nM and 5 μM was similarly estimated.
Take `Cn1c(=O)c2c(nc(Oc3cccc(OC(F)(F)F)c3)n2Cc2cccc(Cl)c2)n(C)c1=O` [Compound 168, 7-(3-chlorobenzyl)-1,3-dimethyl-8-(3-(trifluoromethoxy)phenoxy)-1H-purine-2,6(3H,7H)-dione]: the IC50 was 100 to 500 nM.

As for `CCCC(=O)CCOc1nc2c(c(=O)n(C)c(=O)n2C)n1Cc1cccc(Br)c1` [Compound 120], the IC50 is 2000 to 10000 nM.

Regarding `Cn1c(=O)c2c(nc(Oc3cccc(C(F)(F)F)c3)n2Cc2ccc(Cl)nc2)n(C)c1=O` [Compound 143, 7-((6-chloropyridin-3-yl)methyl)-1,3-dimethyl-8-(3-(trifluoromethyl)phenoxy)-1H-purine-2,6(3H,7H)-dione], the IC50 was 2000 to 10000 nM.

Regarding `CCOC(=O)CCc1nc2c(c(=O)n(C)c(=O)n2C)n1Cc1cccc(Br)c1` [Compound 37, ethyl 3-(7-(3-bromobenzyl)-1,3-dimethyl-2,6-dioxo-2,3,6,7-tetrahydro-1H-purin-8-yl)propanoate], the IC50 is 2000 to 10000 nM.

Take `CCCOCCc1nc2c(c(=O)n(C)c(=O)n2C)n1Cc1cccc(-c2ccccc2)c1` [Compound 128, 7-(biphenyl-3-ylmethyl)-1,3-dimethyl-8-(2-propoxyethyl)-1H-purine-2,6(3H,7H)-dione]: the IC50 was 100 to 500 nM.

As for `Cn1c(=O)c2c(nc(CCc3ccccc3)n2Cc2cccc(Br)c2)n(C)c1=O` [Compound 33, 7-(3-bromobenzyl)-1,3-dimethyl-8-phenethyl-1H-purine-2,6(3H,7H)-dione], the IC50 was 500 to 1000 nM.

As for `CCc1coc(CSc2nc3c(c(=O)n(C)c(=O)n3C)n2Cc2ccc(Cl)cc2)n1` [Compound 146, 7-(4-chlorobenzyl)-8-((4-ethyloxazol-2-yl)methylthio)-1,3-dimethyl-1H-purine-2,6(3H,7H)-dione], the IC50 is under 100 nM.

For `Cn1c(=O)c2c(nc(CCCl)n2Cc2cccc(Br)c2)n(C)c1=O` [Compound 40, 7-(3-Bromobenzyl)-8-(2-chloroethyl)-1,3-dimethyl-1H-purine-2,6(3H,7H)-dione], the IC50 was 2000 to 10000 nM.

As to `CCCCC(O)c1nc2c(c(=O)n(C)c(=O)n2C)n1Cc1cccc(Br)c1` (stereo not drawn) [Compound 98], the IC50 was 2000 to 10000 nM.

In the case of `COc1cccc(Cn2c(Oc3ccc(-c4ccccc4)nc3)nc3c2c(=O)n(C)c(=O)n3C)c1` [Compound 171], the IC50 is 2000 to 10000 nM.

As for `Cn1c(=O)c2c(nc(CCNCc3ccccc3)n2Cc2cccc(Br)c2)n(C)c1=O` [Compound 47, 8-(2-(Benzylamino)ethyl)-7-(3-bromobenzyl)-1,3-dimethyl-1H-purine-2,6(3H,7H)-dione], the IC50 was 2000 to 10000 nM.

Take `Cn1c(=O)c2c(nc(OCc3cccc(C(F)(F)F)c3)n2Cc2ccc(Cl)cc2)n(C)c1=O` [Compound 145, 7-(4-chlorobenzyl)-1,3-dimethyl-8-(3-(trifluoromethyl)benzyloxy)-1H-purine-2,6(3H,7H)-dione]: the IC50 was under 100 nM.

Turning to `CCCC(=O)CSc1nc2c(c(=O)n(C)c(=O)n2C)n1Cc1cccc(Br)c1` [Compound 13, 7-(3-bromobenzyl)-1,3-dimethyl-8-(2-oxopentylthio)-1H-purine-2,6(3H,7H)-dione], the IC50 was under 100 nM.

As to `Cn1c(=O)c2c(nc(Oc3cccc(C(F)(F)F)c3)n2CCCc2ccc(Cl)cc2)n(C)c1=O` [Compound 195], the IC50 was 2000 to 10000 nM.

In the case of `CC(O)CSc1nc2c(c(=O)n(C)c(=O)n2C)n1Cc1cccc(Br)c1` (stereo not drawn) [Compound 5], the IC50 is 2000 to 10000 nM.

Turning to `Cn1c(=O)c2c(nc(SCc3ncc[nH]3)n2Cc2cccc(Br)c2)n(C)c1=O` [Compound 8], the IC50 is 2000 to 10000 nM.

Regarding `CCCCCCOc1nc2c(c(=O)n(C)c(=O)n2C)n1Cc1ccc(Cl)cc1` [Compound 215, 7-(4-Chlorobenzyl)-8-(hexyloxy)-1,3-dimethyl-1H-purine-2,6(3H,7H)-dione], the IC50 is under 100 nM.

For `CCc1coc(CSc2nc3c(c(=O)n(C)c(=O)n3C)n2Cc2cccc(Br)c2)n1` [Compound 20, 7-(3-bromobenzyl)-8-((4-ethyloxazol-2-yl)methylthio)-1,3-dimethyl-1H-purine-2,6(3H,7H)-dione], the IC50 is 100 to 500 nM.

These data come from US20160145257A1, “SUBSTITUTED XANTHINES AND METHODS OF USE THEREOF” (Hydra Biosciences, Inc., priority 2013, published 2016).
